Assay results published in article PMC4261083, “An atypical residue in the pore of Varroa destructor GABA-activated RDL receptors affects picrotoxin block and thymol modulation” (Insect Biochemistry and Molecular Biology, 2014).
Numbering of substitutions follows the chain as printed.

Experiments:
Type in all cases: cell-based
[1] = target: T1, 4M2 mutant Drosophila RDL receptor (N-7′H, T6′M, A20′S and A21′Q) (Drosophila melanogaster, UniProt P25123, A319S/A320Q/N292H/T305M); assay: GABA activation of RDL receptors, two electrode voltage clamp in Xenopus oocytes; conditions: 4M2 RDL
T1 construct: expressed in transfected cells; host or cells: Xenopus laevis oocytes injected with cRNA
T1 sequence (P25123 45-606 N292H/T305M/A319S/A320Q): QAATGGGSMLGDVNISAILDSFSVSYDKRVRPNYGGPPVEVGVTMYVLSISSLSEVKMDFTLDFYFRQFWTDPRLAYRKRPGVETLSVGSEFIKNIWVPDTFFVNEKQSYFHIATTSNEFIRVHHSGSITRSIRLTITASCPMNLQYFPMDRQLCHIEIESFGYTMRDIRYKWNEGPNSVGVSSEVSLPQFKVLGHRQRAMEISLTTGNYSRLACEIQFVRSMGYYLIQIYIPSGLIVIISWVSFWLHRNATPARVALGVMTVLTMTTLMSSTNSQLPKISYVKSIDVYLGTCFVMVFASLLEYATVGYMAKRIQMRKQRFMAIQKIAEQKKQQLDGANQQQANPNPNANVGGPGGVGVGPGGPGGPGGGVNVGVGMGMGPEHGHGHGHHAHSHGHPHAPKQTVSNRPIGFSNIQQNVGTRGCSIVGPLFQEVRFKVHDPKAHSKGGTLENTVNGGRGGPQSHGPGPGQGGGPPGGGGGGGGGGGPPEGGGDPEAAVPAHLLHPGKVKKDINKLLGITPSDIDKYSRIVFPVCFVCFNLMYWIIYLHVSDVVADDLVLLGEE
Protocol: (§1) X. laevis oocyte-positive females were purchased from NASCO (Fort Atkinson, Wisconsin, USA) and maintained according to standard methods. Harvested stage V-VI Xenopus oocytes were washed in four changes of ND96 (96 mM NaCl, 2 mM KCl, 1 mM MgCl2, 1 mM CaCl2, 5 mM HEPES, pH 7.5), de-folliculated in 1.5 mg ml^−1 collagenase Type 1A for approximately 2 h, washed again in four changes of ND96 and stored in ND96 containing 2.5 mM sodium pyruvate, 0.7 mM theophylline and […].
(§2) Site directed mutagenesis was performed with the QuikChange mutagenesis kit (Agilent, La Jolla, CA). cRNA was transcribed in vitro from linearised pGEMHE cDNA template using the mMessage mMachine T7 Transcription kit (Ambion, Austin, Texas, USA). Stage V and VI oocytes were injected with 5 ng cRNA, incubated at 18 °C, and currents recorded 18–24 h post-injection.
(§3) Currents were recorded at 5 kHz and filtered at a frequency of 1 kHz. Micro-electrodes were fabricated from borosilicate glass (GC120TF-10, Harvard Apparatus, Edenbridge, Kent, UK) using a one stage horizontal pull (P-87, Sutter Instrument Company, California, USA) and filled with 3 M KCl. […] Oocytes were perfused with ND96 at a constant rate of 12 ml min^−1. Drug application was via a simple gravity fed system calibrated to run at the same rate.
(§4) Analysis and curve fitting was performed using Prism v5 (GraphPad Software, San Diego, California, USA). Concentration-response data for each oocyte was normalised to the maximum current for that oocyte. The mean and S.E.M. for a series of oocytes were fitted to the four parameter logistic equation in Prism.

[2] = target: T2, A20′S mutant Drosophila RDL receptor (Drosophila melanogaster, UniProt P25123, A319S); assay: Thymol modulation of GABA concentration-response curves, two electrode voltage clamp in Xenopus oocytes
T2 construct: expressed in transfected cells; host or cells: Xenopus laevis oocytes injected with cRNA
T2 sequence (P25123 45-606 A319S): T1 sequence (P25123 45-606 N292H/T305M/A319S/A320Q) with H248N, M261T, Q276A
Protocol: as §1, §2, §3, §4

[3] = target: T3, N-7′H mutant Drosophila RDL receptor (Drosophila melanogaster, UniProt P25123, N292H); assay: as above; conditions: N-7′H RDL
T3 construct: expressed in transfected cells; host or cells: Xenopus laevis oocytes injected with cRNA
T3 sequence (P25123 45-606 N292H): T1 sequence (P25123 45-606 N292H/T305M/A319S/A320Q) with M261T, S275A, Q276A
Protocol: as §1, §2, §3, §4

[4] = GABA EC50 control vs +100 μM thymol
[5] = GABA concentration-response in presence of 100 μM thymol

SMILES	GABA nH (Hill slope) [1]	Effect of thymol on GABA-induced responses ([2]; 100 μM thymol, 1 μM GABA)	Fold change in EC50 [2, 4]	% Imax [2, 5] [%]	Effect of thymol on GABA-induced responses ([3]; 100 μM thymol, 1 μM GABA)	Fold change in EC50 [3, 4]	% Imax [3, 5] [%]
NCCCC(=O)O [GABA]	1.0 ± 0.3						
Cc1ccc(C(C)C)c(O)c1 [Thymol, thymol]		enhance	5.0	81 ± 6	enhance	2.7	82 ± 4
